In patent US9066958B2 (priority 2006, dated 2015):
Read-outs that look alike come from different tables or passages of the source.

Assays:
[1] = Stability of solvent with storage; type: physicochemical
[2] = Stability of vitamin D in vehicle; type: physicochemical; settings: result in words; only cells marked # are direct experimental observation
From the text: The liquid has minimal sensory effects i.e. it has minimal smell, taste, or texture i.e. no oily feel. The liquid is biologically natural in the context of breast-feeding, and is safe for infant consumption. The liquid per se is not subject to rancidity or oxidation over the shelf-life of the composition. […] One drop of each liquid was applied onto a nipple to determine whether it would adhere well enough so that no portion of it would drip off in a timeframe of 10 seconds. The results of these experimental observations are presented in Table 1 along with further considerations regarding the parameters desired for this invention.

Compound	Stability of solvent with storage [1]	Stability of vitamin D in vehicle [2]	Stability of solvent with storage ([1]; direct experimental observation)
CC(=O)Oc1c(C)c(C)c2c(c1C)CCC(C)(CCC[C@H](C)CCC[C@H](C)CCCC(C)C)O2 (stereo partly shown) [Eitamin E acetate oil]	Stable	–	–
Sesame oil	Oxidizes/	–	–
Canola oil	Oxidizes/	–	–
CCO [Ethanol]	–	Solvent	Evaporates
Medium-chain triglyceride	Stable	–	–
O [Water]	Stable	–	–
